The test system of series [1] is Mus musculus. Kind of series: Antipsychotic activity in po dosed mouse assessed as reversal of apomorphine-induced climbing activity. Type of series: functional.
Series [2] deals with Mus musculus. Kind of series: Toxicity in po dosed mouse assessed as catalepsy. Type of series: organism-based. The following applies: in vivo.
In series [3] the test system is Mus musculus. Kind of series: Antipsychotic activity in po dosed mouse assessed as reversal of MK-801-induced hyperactivity. It is filed as functional.
The target of series [4] is D(2) dopamine receptor (Rattus norvegicus, UniProt P61169). Kind of series: Displacement of [3H]spiperone from dopamine D2 receptor in rat striatum.
The target in series [5] is 5-hydroxytryptamine receptor 2A (Rattus norvegicus, UniProt P14842). The experiment in a line: Displacement of [3H]ketanserin from 5HT2A receptor in rat brain cortex. Type of series: tissue-based.
The target in series [6] is T1, 5-hydroxytryptamine receptor 1A (Rattus norvegicus, UniProt P19327).
T1 sequence (P19327 whole entry): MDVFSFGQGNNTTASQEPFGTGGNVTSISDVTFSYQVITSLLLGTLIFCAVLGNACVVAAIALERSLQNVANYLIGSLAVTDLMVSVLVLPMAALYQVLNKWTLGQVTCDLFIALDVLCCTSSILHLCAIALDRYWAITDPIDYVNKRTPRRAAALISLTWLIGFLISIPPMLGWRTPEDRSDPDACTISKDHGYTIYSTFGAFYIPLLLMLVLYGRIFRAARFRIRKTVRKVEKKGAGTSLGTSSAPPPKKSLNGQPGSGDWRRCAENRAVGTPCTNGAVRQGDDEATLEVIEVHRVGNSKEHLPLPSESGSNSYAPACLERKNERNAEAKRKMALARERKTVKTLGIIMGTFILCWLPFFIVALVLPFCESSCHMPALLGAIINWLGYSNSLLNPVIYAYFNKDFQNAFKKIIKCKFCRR
The experiment in a line: Displacement of [3H]8-OH-DPAT from 5HT1A receptor in rat brain cortex. Type of series: tissue-based.

Series [7] relates to Mus musculus. Kind of series: Selectivity ratio of ED50 for po dosed mouse assessed as catalepsy to ED50 for po dosed mouse assessed as reversal of apomorphine-induced climbing activity.
Series [8] concerns Mus musculus. Kind of series: Selectivity ratio of ED50 for po dosed mouse assessed as catalepsy to ED50 for po dosed mouse assessed as reversal of MK-801-induced hyperactivity.
The test system of series [9] is Mus musculus. The experiment in a line: Antipsychotic activity in po dosed mouse assessed as reversal of DOI-induced head twitch activity. It is filed as functional.

25 compounds from ChEMBL document CHEMBL3739370, “Synthesis and evaluation of amide, sulfonamide and urea benzisoxazole derivatives as potential atypical antipsychotics” (Medchemcomm, 2015) can be followed below.

D(2) dopamine receptor, sequence (P61169 whole entry): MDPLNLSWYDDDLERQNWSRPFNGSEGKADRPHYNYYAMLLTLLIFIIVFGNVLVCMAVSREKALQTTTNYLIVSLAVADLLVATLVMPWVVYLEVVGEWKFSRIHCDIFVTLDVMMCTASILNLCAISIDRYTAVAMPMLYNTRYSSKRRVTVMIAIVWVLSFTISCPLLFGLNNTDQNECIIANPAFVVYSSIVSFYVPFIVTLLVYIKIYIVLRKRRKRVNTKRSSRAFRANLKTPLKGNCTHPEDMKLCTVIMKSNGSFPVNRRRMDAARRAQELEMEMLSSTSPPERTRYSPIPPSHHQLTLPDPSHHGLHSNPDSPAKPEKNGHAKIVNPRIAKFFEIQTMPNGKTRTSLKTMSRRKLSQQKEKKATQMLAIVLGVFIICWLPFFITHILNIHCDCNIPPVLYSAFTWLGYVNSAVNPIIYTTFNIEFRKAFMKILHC
5-hydroxytryptamine receptor 2A, sequence (P14842 whole entry): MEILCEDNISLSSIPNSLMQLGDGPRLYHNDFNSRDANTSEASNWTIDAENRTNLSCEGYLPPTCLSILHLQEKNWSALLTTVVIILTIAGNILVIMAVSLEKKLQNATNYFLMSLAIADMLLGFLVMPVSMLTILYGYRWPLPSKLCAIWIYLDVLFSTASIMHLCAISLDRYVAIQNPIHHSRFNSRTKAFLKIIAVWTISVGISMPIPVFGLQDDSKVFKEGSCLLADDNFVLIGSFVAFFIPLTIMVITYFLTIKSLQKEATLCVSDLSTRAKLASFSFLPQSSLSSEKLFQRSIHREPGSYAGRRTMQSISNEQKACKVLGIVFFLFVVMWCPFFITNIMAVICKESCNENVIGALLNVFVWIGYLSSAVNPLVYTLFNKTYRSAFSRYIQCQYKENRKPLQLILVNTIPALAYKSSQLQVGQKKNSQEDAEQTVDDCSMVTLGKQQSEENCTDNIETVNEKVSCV

Turning to `CN1CCN(C2=Nc3cc(Cl)ccc3Nc3ccccc32)CC1` [CLOZAPINE], the 50% effective dose (ED50) in [1] came to 4.52 mg/kg; in series [2] it was 55.89 mg/kg; in [3] it was 2.11 mg/kg.
Consider `N#Cc1ccc(S(=O)(=O)N2CCC(CN3CCC(c4noc5cc(F)ccc45)CC3)CC2)cc1`, for which the Ki in series [4] came out at 190 nM; in series [5], 113 nM; in [6], 479 nM.
Consider `O=C(Nc1ccc(Cl)cc1)N1CCC(CN2CCC(c3noc4cc(F)ccc34)CC2)CC1`, for which the figures for the Ki in [4], in series [5] and in series [6] were 85.6 nM, 6.8 nM and 299 nM, respectively.
As for `O=S(=O)(c1cccs1)N1CCC(CN2CCC(c3noc4cc(F)ccc34)CC2)CC1`, the Ki was found to be 1290 nM in series [4], 455 nM in [5] and 165 nM in series [6].
Turning to `O=C(CCCN1CCC(O)(c2ccc(Cl)cc2)CC1)c1ccc(F)cc1` [HALOPERIDOL], the results for the “Ratio ED50” value in series [7] and in series [8] were 2.8 and 3.4, respectively. The ED50 worked out at 0.17 mg/kg in [1], 0.47 mg/kg in [2] and 0.14 mg/kg in series [3].
`CC(C)(C)C(=O)N1CCC(CN2CCC(c3noc4cc(F)ccc34)CC2)CC1`: the values for the Ki in [4], in [5] and in series [6] were greater than 10000 nM, 310 nM and greater than 10000 nM, respectively.
Regarding `O=[N+]([O-])c1ccccc1S(=O)(=O)N1CCC(CN2CCC(c3noc4cc(F)ccc34)CC2)CC1`, the Ki worked out at 590 nM in [4], 26.9 nM in series [5] and 1010 nM in series [6].
The corresponding values for `O=C(/C=C/c1ccccc1)N1CCC(CN2CCC(c3noc4cc(F)ccc34)CC2)CC1` are greater than 10000 nM, 2110 nM and greater than 10000 nM.
With `CCN(C)C(=O)N1CCC(CN2CCC(c3noc4cc(F)ccc34)CC2)CC1`, the values for the Ki in series [4], in series [5] and in series [6] were greater than 10000 nM, 1100 nM and greater than 10000 nM, respectively.
On to `O=S(=O)(c1ccc2ccccc2c1)N1CCC(CN2CCC(c3noc4cc(F)ccc34)CC2)CC1`, for which the inhibition constant (Ki) in series [4] was determined as 1380 nM; in series [5], 32.6 nM; in series [6], 1200 nM.
On the same counts, the results for `O=[N+]([O-])c1ccc(S(=O)(=O)N2CCCC(CN3CCC(c4noc5cc(F)ccc45)CC3)C2)cc1` (stereo not drawn) are 1100 nM, 30.1 nM and 990 nM.
Regarding `O=C(c1ccc(F)cc1)N1CCC(CN2CCC(c3noc4cc(F)ccc34)CC2)CC1`, the values for the Ki in series [4], in series [5] and in series [6] were 86.8 nM, 19 nM and 157 nM, respectively.
Regarding `O=[N+]([O-])c1ccc(S(=O)(=O)N2CCC(CCN3CCC(c4noc5cc(F)ccc45)CC3)CC2)cc1`, the results for the Ki in [4], in [5] and in [6] were greater than 10000 nM, 66.8 nM and 1370 nM, respectively.
On the same counts, the results for `O=S(=O)(c1ccc(F)cc1)N1CCC(CN2CCC(c3noc4cc(F)ccc34)CC2)CC1` are 211 nM, 368 nM and 789 nM.
On the same counts, the results for `O=C(C1CC1)N1CCC(CN2CCC(c3noc4cc(F)ccc34)CC2)CC1` are greater than 10000 nM, 216 nM and greater than 10000 nM.
In the case of `CN(C)C(=O)N1CCC(CN2CCC(c3noc4cc(F)ccc34)CC2)CC1`, the inhibition constant Ki was greater than 10000 nM in series [4], 569 nM in series [5] and greater than 10000 nM in series [6].
Turning to `O=S(=O)(c1ccccc1)N1CCC(CN2CCC(c3noc4cc(F)ccc34)CC2)CC1`, the Ki in series [4] was 2500 nM; in series [5], greater than 10000 nM; in [6], greater than 10000 nM.
Regarding `O=C(c1ccc([N+](=O)[O-])cc1)N1CCC(CN2CCC(c3noc4cc(F)ccc34)CC2)CC1`, the Ki in series [4] came to 195 nM; in [5] it was 71.8 nM; in [6] it was 269 nM.
Consider `COc1ccc(C(=O)N2CCC(CN3CCC(c4noc5cc(F)ccc45)CC3)CC2)cc1`, for which the Ki stood at 1190 nM in series [4], 121 nM in series [5] and 2500 nM in series [6].
On the same counts, the results for `O=[N+]([O-])c1cccc(S(=O)(=O)N2CCC(CN3CCC(c4noc5cc(F)ccc45)CC3)CC2)c1` are 759 nM, 135 nM and 917 nM.
With `Cc1ccc(NC(=O)N2CCC(CN3CCC(c4noc5cc(F)ccc45)CC3)CC2)cc1`, the Ki in series [4] amounted to 178 nM; in series [5], 26.9 nM; in [6], 276 nM.
In the case of `O=C(c1ccccc1)N1CCC(CN2CCC(c3noc4cc(F)ccc34)CC2)CC1`, the Ki in series [4] came out at 1270 nM; in series [5] it was 114 nM; in [6] it was 599 nM.
With `Cc1nc2n(c(=O)c1CCN1CCC(c3noc4cc(F)ccc34)CC1)CCCC2` [RISPERIDONE], the ED50 in series [1] worked out at 0.012 mg/kg; in series [2], 0.38 mg/kg; in series [3], 0.013 mg/kg; in series [9], 0.038 mg/kg.
On to `O=C(NCc1ccccc1)N1CCC(CN2CCC(c3noc4cc(F)ccc34)CC2)CC1`, for which the Ki in series [4] is 1270 nM; in series [5], 265 nM; in [6], greater than 10000 nM.
On the same counts, the results for `Cc1ccc(S(=O)(=O)N2CCC(CN3CCC(c4noc5cc(F)ccc45)CC3)CC2)cc1` are 1290 nM, 1520 nM and greater than 10000 nM.
